Measurements from article PMC11998009, “Identification of a New FtsZ Inhibitor by Virtual Screening, Mechanistic Insights, and Structure–Activity Relationship Analyses” (ACS Infectious Diseases, 2025).
pIC50: −log10 of the molar value. In brackets after ≈: the same amount, converted by molar mass. Where two headings read alike, the source gives them in different places.

How the values were obtained:
S. aureus ATCC25923 [1] = experiment: MIC determination by 2-fold microdilution, resazurin method; type: cell-based, Staphylococcus aureus; conditions: S. aureus ATCC25923, single drug; for MIC: Staphylococcus aureus
S. aureus ATCC25923 [2] = experiment: Checkerboard assay of C11 with antibiotics; type: cell-based; conditions: antibiotic combined with C11
[3] = test system: S. aureus cystic fibrosis clinical isolates; experiment: MIC for CF clinical isolates; type: cell-based
S. aureus = conditions: cited from earlier work
[4] = molecular target: T1, S. aureus FtsZ protein (FtsZSa) (Staphylococcus aureus, UniProt P0A031); experiment: In vitro FtsZ GTPase activity (PK/LDH coupled assay); type: biochemical; parameters: Residual GTPase activity: concentration or dose not given beside the values; conditions: S. aureus FtsZ protein
T1 construct: made in house; host or cells: Escherichia coli BL21DE3
T1 sequence (P0A031 1-390): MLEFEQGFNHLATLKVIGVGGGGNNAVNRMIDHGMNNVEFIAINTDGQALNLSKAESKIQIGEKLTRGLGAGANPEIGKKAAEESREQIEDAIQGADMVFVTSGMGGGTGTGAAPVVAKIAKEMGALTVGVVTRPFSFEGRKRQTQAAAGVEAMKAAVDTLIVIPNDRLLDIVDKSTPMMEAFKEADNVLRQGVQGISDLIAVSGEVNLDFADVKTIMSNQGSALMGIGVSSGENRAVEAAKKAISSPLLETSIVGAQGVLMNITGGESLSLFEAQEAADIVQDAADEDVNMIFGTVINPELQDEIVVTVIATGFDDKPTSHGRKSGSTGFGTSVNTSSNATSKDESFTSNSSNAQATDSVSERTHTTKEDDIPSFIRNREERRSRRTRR
Procedure: In vitro FtsZ GTPase activity
FtsZSa and FtsZPa were expressed and purified as previously described.13,14 GTPase activity was assayed at 30°C using a pyruvate kinase–L-lactic dehydrogenase (PK/LDH) spectrophotometric coupled assay, as previously described15 with minor modification. The reaction mixture was first set up to contain 50 mM MES […]
phosphoenolpyruvate, and 4.8 μM of FtsZ. The assay was initiated by the addition of 1 mM GTP. The experiments were performed in triplicate. The inhibitory concentration that reduced the enzymatic activity by half (IC50) was determined using Prism 10. […]

FtsZSa [5] = molecular target: T2, FtsZSa (Staphylococcus aureus, UniProt P0A031); experiment: FtsZSa polymerization, 90° light scattering
T2 sequence (P0A031 1-390): T1 sequence (P0A031 1-390)

FtsZSa [6] = molecular target: T2, FtsZSa; experiment: FtsZSa polymerization, sedimentation assay; conditions: sedimentation assay of C11 derivatives
mammalian tubulin = experiment: Tubulin polymerization assay, fluorescence based; type: biochemical; conditions: 10 μM; DMSO control 3.78
[7] = test system: Mycobacterium tuberculosis; parameters: method as in PMID 21126020; conditions: cited from earlier work

C[C@@H](O)[C@H]1C(=O)N2C(C(=O)O)=C(S[C@@H]3CN[C@H](C(=O)N(C)C)C3)[C@H](C)[C@H]12 [Meropenem, reference compound]
MIC (S. aureus ATCC25923 [1]): 0.25 µg/mL (≈ 0.652 µM)
Effect of the combination with C11 (S. aureus ATCC25923 [2]): synergistic effect
MIC ([3]; S. aureus BG8 MRSA, single drug): 2 µg/mL (≈ 5.22 µM)
MIC ([3]; S. aureus BG10 MRSA, single drug): 16 µg/mL (≈ 41.7 µM)
MIC ([3]; Staphylococcus aureus, MRSA, S. aureus BG6 MRSA, read-out: MIC): 4 µg/mL (≈ 10.4 µM)
MIC ([3]; Staphylococcus aureus, MRSA, S. aureus BG7 MRSA smv, read-out: MIC): 2 µg/mL (≈ 5.22 µM)
MIC ([3]; Staphylococcus aureus, MRSA, S. aureus BG8 MRSA, single drug, read-out: MIC): 2 µg/mL (≈ 5.22 µM)
MIC ([3]; Staphylococcus aureus, MRSA, S. aureus BG10 MRSA, single drug, read-out: MIC): 16 µg/mL (≈ 41.7 µM)
MIC ([3]; Staphylococcus aureus, S. aureus BG1, read-out: MIC): 0.5 µg/mL (≈ 1.3 µM)
MIC ([3]; Staphylococcus aureus, S. aureus BG2, read-out: MIC): 0.5 µg/mL (≈ 1.3 µM)
MIC ([3]; Staphylococcus aureus, S. aureus BG3, read-out: MIC): 0.25 µg/mL (≈ 0.652 µM)
MIC ([3]; Staphylococcus aureus, S. aureus BG4, read-out: MIC): 0.25 µg/mL (≈ 0.652 µM)
MIC ([3]; Staphylococcus aureus, S. aureus BG5, read-out: MIC): 0.25 µg/mL (≈ 0.652 µM)

NC(=O)c1c(F)ccc(OCc2nc3cc(C(F)(F)F)cnc3s2)c1F [TX707]
MIC S. aureus (S. aureus; ref 19−22): 0.25 to 2 µg/mL

O=C(c1ccco1)N1CCN(C2=NS(=O)(=O)c3ccccc32)CC1 [C11.6]
MIC (S. aureus ATCC25923 [1]): ≥ 128 µg/mL

CC(=O)NC[C@H]1CN(c2ccc(N3CCOCC3)c(F)c2)C(=O)O1 [Linezolid, reference compound]
MIC (S. aureus ATCC25923 [1]): 2 µg/mL (≈ 5.93 µM)
Effect of the combination with C11 (S. aureus ATCC25923 [2]): additive effect

NC(=O)c1cc(OC2CN(C(=O)Nc3ccccc3F)C2)ccn1 [C6]
Residual GTPase activity [4]: 92.8%
MIC S. aureus (S. aureus ATCC25923 [1]): ≥ 256 µg/mL

COC(=O)c1ccc(CSc2ccc(-c3ccc4c(c3)OCO4)nn2)o1 [C1]
Residual GTPase activity [4]: 78.5%
MIC S. aureus (S. aureus ATCC25923 [1]): ≥ 256 µg/mL

COc1ccccc1-c1cc(C(=O)NCC(N)=O)[nH]n1 [C5]
Residual GTPase activity [4]: 95.3%
MIC S. aureus (S. aureus ATCC25923 [1]): ≥ 256 µg/mL

O=C(CN1C(=O)c2ccccc2S1(=O)=O)Nc1nc(-c2ccccc2)cs1 [C11.12]
MIC (S. aureus ATCC25923 [1]): ≥ 128 µg/mL

O=C(Oc1cc(OC(=O)c2ccc(O)c(Cl)c2)c2ccccc2c1)c1ccc(O)c(Cl)c1 [UCM53]
MIC S. aureus (S. aureus; ref 15−17): 2 to 8 µg/mL

COc1ccc(CC(=O)Nc2cccc(C(N)=O)c2)cc1 [C8]
pIC50 [4]: 5.08
Residual GTPase activity [4]: 11.8%
MIC S. aureus (S. aureus ATCC25923 [1]): ≥ 256 µg/mL

O=C(CSc1nnc(NC2=NS(=O)(=O)c3ccccc32)s1)Nc1ccc(Cl)cc1 [C11.10]
MIC (S. aureus ATCC25923 [1]): ≥ 128 µg/mL

Cc1ccc(-c2nnc(SC3=CS(=O)(=O)c4ccccc43)o2)cc1 [C11.11]
MIC (S. aureus ATCC25923 [1]): ≥ 128 µg/mL

Cc1ccc(-c2nnc(Nc3cccc(O)c3)c3ccccc23)cc1S(N)(=O)=O [C9]
Residual GTPase activity [4]: 34.3%
MIC S. aureus (S. aureus ATCC25923 [1]): ≥ 256 µg/mL

CCc1sc(NC2=NS(=O)(=O)c3ccccc32)nc1-c1ccccc1 [C11.7]
MIC S. aureus (S. aureus ATCC25923 [1]): 8 µg/mL (≈ 21.7 µM)
MIC (S. aureus ATCC25923 [1]): 8 µg/mL (≈ 21.7 µM)
pIC50 (FtsZSa [5]): 4.53

O=S1(=O)N=C(Nc2nnc(SCc3ccccc3Cl)s2)c2ccccc21 [C11.9]
MIC (S. aureus ATCC25923 [1]): 128 µg/mL (≈ 303 µM)

O=C(Oc1ccc(NC2=NS(=O)(=O)c3ccccc32)cc1)c1ccccc1 [C11.1]
MIC (S. aureus ATCC25923 [1]): ≥ 128 µg/mL
Activity on FtsZSa polymerization (FtsZSa [6]): mild activity
pIC50 (FtsZSa [5]): 4.14

CCOc1ccc(NC(=O)CN2C(=O)c3ccccc3S2(=O)=O)cc1 [C11.4]
MIC (S. aureus ATCC25923 [1]): ≥ 128 µg/mL
pIC50 (FtsZSa [5]): 4.38

CC(=O)O[C@H]1C(=O)[C@@]2(C)[C@H]([C@H](OC(=O)c3ccccc3)[C@]3(O)C[C@H](OC(=O)[C@H](O)[C@@H](NC(=O)c4ccccc4)c4ccccc4)C(C)=C1C3(C)C)[C@]1(OC(C)=O)CO[C@@H]1C[C@@H]2O [Paclitaxel, paclitaxel, reference compound]
Vmax of tubulin polymerization (mammalian tubulin): 21.45 mOD/min

Benzimidazole
MIC Mtb H3tRv [7]: 0.39 µg/mL

O=S1(=O)C=C(Sc2nnc(-c3ccccc3)o2)c2ccccc21 [C11.2]
MIC (S. aureus ATCC25923 [1]): 8 µg/mL (≈ 23.4 µM)
pIC50 (FtsZSa [5]): 4.62

CN1CCC(C(=O)NC(=O)c2c(F)ccc(OCc3nc4cc(C(F)(F)F)cnc4s3)c2F)CC1 [TX709]
MIC S. aureus (S. aureus; ref 19−22): 2 to 4 µg/mL

CC[C@H]1OC(=O)[C@H](C)[C@@H](O[C@H]2C[C@@](C)(OC)[C@@H](O)[C@H](C)O2)[C@H](C)[C@@H](O[C@@H]2O[C@H](C)C[C@H](N(C)C)[C@H]2O)[C@](C)(O)C[C@@H](C)C(=O)[C@H](C)[C@@H](O)[C@]1(C)O [Erythromycin, reference compound]
MIC (S. aureus ATCC25923 [1]): 0.5 µg/mL (≈ 0.681 µM)
Effect of the combination with C11 (S. aureus ATCC25923 [2]): additive effect

CC(C)(O/N=C(\C(=O)N[C@@H]1C(=O)N2C(C(=O)[O-])=C(C[n+]3ccccc3)CS[C@H]12)c1csc(N)n1)C(=O)O [Ceftazidime, reference compound]
MIC (S. aureus ATCC25923 [1]): 16 µg/mL (≈ 29.3 µM)
Effect of the combination with C11 (S. aureus ATCC25923 [2]): synergistic effect

O=S1(=O)N=C(Nc2nc3c(s2)CCCC3)c2ccccc21 [C11.3]
MIC (S. aureus ATCC25923 [1]): ≥ 128 µg/mL

CO[C@H]1/C=C/O[C@@]2(C)Oc3c(C)c(O)c4c(O)c(c(/C=N/N5CCN(C)CC5)c(O)c4c3C2=O)NC(=O)/C(C)=C\C=C\[C@H](C)[C@H](O)[C@@H](C)[C@@H](O)[C@@H](C)[C@H](OC(C)=O)[C@@H]1C [Rifampicin, reference compound]
MIC (S. aureus ATCC25923 [1]): 0.03 µg/mL (≈ 0.0365 µM)
Effect of the combination with C11 (S. aureus ATCC25923 [2]): synergistic effect

CC(O)c1ccc(C2(CNC(=O)c3ccc(C(F)(F)F)nc3)CCCC2)s1 (centres unmarked) [C2]
Residual GTPase activity [4]: 35.5%
MIC S. aureus (S. aureus ATCC25923 [1]): ≥ 256 µg/mL

O=S1(=O)N=C(Nc2nc(-c3ccccc3)cs2)c2ccccc21 [C11.5]
MIC S. aureus (S. aureus ATCC25923 [1]): ≥ 128 µg/mL
MIC (S. aureus ATCC25923 [1]): ≥ 128 µg/mL
pIC50 (FtsZSa [5]): 4.46

CN(C)[C@@H]1C(O)=C(C(N)=O)C(=O)[C@@]2(O)C(O)=C3C(=O)c4c(O)cccc4[C@@](C)(O)[C@H]3C[C@@H]12 [Tetracycline, reference compound]
MIC (S. aureus ATCC25923 [1]): 0.5 µg/mL (≈ 1.13 µM)
Effect of the combination with C11 (S. aureus ATCC25923 [2]): additive effect

Cc1occc1-c1nnc(SC2=CS(=O)(=O)c3ccccc32)o1 [C11.8]
MIC (S. aureus ATCC25923 [1]): 128 µg/mL (≈ 370 µM)
pIC50 (FtsZSa [5]): 4.38
